# Source: paper PMC9652300, “Neolignans isolated from Saururus cernuus L. (Saururaceae) exhibit efficacy against Schistosoma mansoni” (Scientific Reports, 2022)
# Like-named read-outs stand apart in the source and are kept apart here.
# What was measured:
# [1] = tested on: S. mansoni adult worms; details: cited from earlier work
# [2] = tested on: S. mansoni adult worms; experiment: Antischistosomal assay: viability of ex vivo adult worm pairs; format: cell-based
# Method: The life cycle of S. mansoni (BH strain) is maintained by routine passage through Biomphalaria glabrata snails and Swiss mice at Guarulhos University (UNG, Guarulhos, SP, Brazil). Rodents, three weeks-old, were purchased from Animais de Laboratório Criação e Comércio (Paulínea, SP, Brazil). Both mice and snails were kept under environmentally controlled conditions (25 °C; humidity of 50%), with free access to food and water. Cercariae of S. mansoni were obtained from infected intermediate host snails in our laboratories as described previously[63],[64].
# (§1) The antischistosomal assay was performed as previously described[65],[66]. Briefly, S. mansoni adult parasites were obtained from infected mice at day 42 post-infection (parasite ex vivo). One adult male and one adult female worms (i.e. one worm pairs) were incubated in flat bottom 24-well plates (Corning, New York, NY, USA) in the presence of threo-austrobailignan-6 and verrucosin (started at 50 µM and followed a twofold dilution series) in RPMI 1640 culture medium supplemented with 5% inactivated fetal calf serum and containing antibiotics (100 U/mL penicillin and 100 μg/mL streptomycin). The control schistosomes were assayed in a culture medium and 0.5% DMSO (representing the highest concentration of solvent). Each concentration (50, 25, 12.5, 6.25, 3.12 µM) was tested in five replicates, and the experiments were repeated three times. Parasites were kept for 72 h (37 °C, 5% CO2), and their viability was monitored microscopically at 2, 24, 48, and 72 h using both a Motic AE2000 inverted microscope (Vancouver, Canada) and a Leica EZ4E stereomicroscope (Wetzlar, Germany). The death of adult schistosomes was defined as no movement observed for at least 1 to 2 min of examination, whereas parasites with any body movement were considered viable. The percentage of viable adult schistosomes was calculated considering worms exposed to compounds vs control worms. For assessment of the reproductive fitness of S. mansoni, the number of eggs was counted daily using an inverted microscope (Motic) as previously described.
# (§2) Statistical analyses were performed using Graph Pad Prism software 8.0 (San Diego, CA, USA). Data are presented as the mean ± standard deviation (SD) of at least three independent experiments, EC50 and, CC50 values were calculated using sigmoid dose–response curves. For S. mansoni egg production, significant differences were determined by one-way analysis of variance (ANOVA) and applying Tukey's test for multiple comparisons with a level of significance set at P < 0.05.
# [3] = tested on: S. mansoni adult worm pairs; experiment: Egg production (reproductive fitness) of paired adult worms; format: cell-based, Schistosoma mansoni; details: for oviposition / total number of eggs vs control worms: within 72 h
# Method: as §1, §2
# [4] = Cytotoxicity MTT assay, Vero cells; format: cell-based, African green monkey; details: African green monkey, Vero cells (monkey kidney cells); Vero cells, MTT, 72 h
# Method: (§3) HaCaT (human epithelial cells) and Vero (monkey kidney cells) were obtained from the Banco de Células do Rio de Janeiro (BCRJ, RJ, Brazil) and the American Type Culture Collection (ATCC CCL-81; Manassas, VA, USA), respectively. Cells were cultured in DMEM medium supplemented with 10% heat-inactivated fetal bovine serum and antibiotics (100 U/mL penicillin and 100 μg/mL streptomycin) at 37 °C in a humidified atmosphere containing 5% CO2. They were maintained in 25 cm^2 culture flasks (Corning, Tewksbury, MA, USA) and harvested using 0.25% trypsin in 0.2 g/L EDTA solution.
# (§4) The MTT assay was used to evaluate the cytotoxic activity as previously described[71],[72]. Briefly, cells were seeded (2 × 10^3/well in 96-well culture plates) and incubated with threo-austrobailignan-6 and verrucosin (started at 500 µM and followed a threefold dilution series) for 72 h at 37 °C and 5% CO2. MTT solution was added to each well and the absorbance was read on an Epoch Microplate Spectrophotometer (BioTek Instruments, Winooski, VT, USA) at 595 nm. The selectivity indices (SI) were calculated by dividing the 50% cytotoxic concentration (CC50) obtained on cells with 50% effective concentration (EC50) values determined on schistosomes.
# as §2
# [5] = tested on: Vero (monkey kidney cells); experiment: Cytotoxicity MTT assay, Vero cells; format: cell-based, African green monkey; details: CC50 Vero / EC50 S. mansoni
# Method: as §3, §4, §2
# [6] = Cytotoxicity MTT assay, HaCaT cells; format: cell-based, human; details: human, HaCaT cells (human epithelial cells); HaCaT cells, MTT, 72 h
# Method: as §3, §4, §2
# [7] = tested on: HaCaT (human epithelial cells); experiment: Cytotoxicity MTT assay, HaCaT cells; format: cell-based; details: CC50 HaCaT / EC50 S. mansoni
# Method: as §3, §4, §2
# [8] = tested on: S. mansoni infections; set-up: method as in PMID 25412105, PMID 28126024; details: systematic reviews and meta-analyses; cited from earlier work
# [9] = Schistosoma mansoni, 72 h, ex vivo adult female worms, 72 h exposure, brackets = 95% confidence interval, read-out: S. mansoni EC50 Female
# [10] = Schistosoma mansoni, 72 h, ex vivo adult male worms, 72 h exposure, brackets = 95% confidence interval, read-out: S. mansoni EC50 Male
# [11] = Schistosoma mansoni, 72 h, adult worms, male and female, 72 h, read-out: EC50 (schistosomicidal activity)
compound,measurement,setting,value
CC1=CC(=O)CC2[C@]1(C)CC[C@@H](C)[C@]2(C)CCC(C)CC(=O)O (stereo partly drawn) [2-oxopopulifolic acid],in vitro effective concentration,[1],50 µM
C=CC(C)(O)CCC=C(C)CCC=C(C)C (mixture of isomers) [nerolidol],in vitro effective concentration,[1],85 µM
CC(=O)Oc1cc(C(C)C)ccc1C [carvacryl acetate],in vitro effective concentration,[1],42.16 µM
C/C=C/c1cc(OC)c2c(c1)[C@H](C)[C@@H](c1ccc(O)c(OC)c1)O2 [licarin A],in vitro effective concentration,[1],30 µM
C=C1C[C@@]23CC[C@H]4[C@@](C)(CCC[C@@]4(C)C(=O)O)[C@@H]2CC[C@@H]1C3 [ent-kaur-16-en-19-oic acid],in vitro effective concentration,[1],26.1 µM
C=CC(C)(C)c1cc(/C=C/C(=O)c2ccc(O)cc2)c(OC)cc1O [licochalcone A],in vitro effective concentration,[1],50 µM
2-oxopopulifolic acid methyl ester,in vitro effective concentration,[1],50 µM
COc1cc(O)cc(O)c1C(=O)/C=C/c1ccccc1 [cardamonin],in vitro effective concentration,[1],25 µM
C=C1C(=O)O[C@@H]2/C=C(\CO)CC/C=C(\C)C[C@H](OC(=O)C(=C)[C@@H](O)CO)[C@@H]12 [cnicin],in vitro effective concentration,[1],50 µM
"CC(C)CCCC(C)CCO (stereo not drawn) [3,7-dimethylloctanol]",in vitro effective concentration,[1],52 µM
"COc1cc([C@H]2O[C@@H](c3ccc(O)c(OC)c3)[C@@H](C)[C@@H]2C)ccc1O [Verrucosin, verrucosin]",time to death of all female worms,[2]; 25 μM,≤ 72 h
same,mortality at 25 µM,"[2]; Schistosoma mansoni, 48 h, read-out: mortality of male parasites",100%
same,EC50,[2]; [9],18.7 µM
same,EC50,[2]; [10],12.6 µM
same,EC50,"[2]; adult worms, male and female, 72 h, read-out: EC50 (schistosomicidal activity)",< 30 µM
same,oviposition,"[3]; 12.5 μM, P < 0.01",significant reduction
same,pairing of male and female parasites,[3]; 25 μM,remained coupled
same,total number of eggs vs control worms,[3]; 25 μM,significantly reduced
same,pairing of male and female parasites,[3]; 50 μM,separated
same,oviposition,[3]; 50 μM,complete lack of oviposition
same,CC50 at 72 h,[4],> 500 µM
same,Monkey cells SI (Selectivity Index),[5],> 26.8
same,CC50 at 72 h,[6],> 500 µM
same,Human cells SI (Selectivity Index),[7],> 26.8
Cc1ccc(C(C)C)cc1O [carvacrol],in vitro effective concentration,[1],56.8 µM
"COc1cc(C[C@@H](C)[C@H](C)Cc2ccc3c(c2)OCO3)ccc1O [Threo-austrobailignan-6, threo-austrobailignan-6]",EC50,[2]; [11],< 30 µM
same,EC50,[2]; [9],28.1 µM
same,EC50,[2]; [10],22.9 µM
same,mortality at 25 µM,"[2]; Schistosoma mansoni, 72 h, read-out: mortality of male worms",100%
same,pairing of male and female parasites,[3]; 25 μM,remained coupled
same,total number of eggs vs control worms,[3]; 25 μM,significantly reduced
same,pairing of male and female parasites,[3]; 50 μM,separated
same,oviposition,[3]; 50 μM,complete lack of oviposition
same,CC50 at 72 h,[4],> 500 µM
same,Monkey cells SI (Selectivity Index),[5],> 17.8
same,CC50 at 72 h,[6],> 500 µM
same,Human cells SI (Selectivity Index),[7],> 17.8
"O=C(C1CCCCC1)N1CC(=O)N2CCc3ccccc3C2C1 (stereo not drawn) [Praziquantel, praziquantel, reference compound]",EC50,[2]; [11],< 0.93 µM
same,EC50,[2]; [9],0.8 µM
same,EC50,[2]; [10],0.7 µM
same,mortality of adult worm pairs,"[2]; praziquantel at 2 µM, monitored up to 72 h",mortality of all worms immediately
same,CC50 at 72 h,[4],> 500 µM
same,Monkey cells SI (Selectivity Index),[5],> 714
same,CC50 at 72 h,[6],> 500 µM
same,cure rate,[8],approximately 75%
